How the values were obtained:
[1] = target: T1, human GABAA receptors containing α1β2γ2 subunits (Homo sapiens, UniProt P14867+P18507+P47870); test: Electrophysiology Assay 2, GABAA subunit transfected HEK cells (α1β2γ2); type: cell-based; settings: expressed human α1β2γ2 receptors; versus diazepam; FIG. 2
T1 construct: expressed in transfected cells; host or cells: HEK cells
Protocol: (§1) GABAA subunit transfected HEK cells are maintained at 37° C. and 5% CO2 using Dulbecco's Modified Eagle's Medium with L-glutamine and no sodium pyruvate (Irvine Scientific #9031, Irvine Calif.) and supplemented with 10% fetal bovine serum (Irvine Scientific #3000), 10 U/ml hygromycin B (Calbiochem #400051), and an antibiotic cocktail consisting of 100 μg/ml streptomycin sulfate, 0.25 μg/ml amphotericin B, 100 units/ml penicillin G (Gibco 15240-096, Gaithersburg Md.). Cells are passed by 2× wash with phosphate buffered saline (PBS) pH 7.4 and lifted using 1× trypsin/EDTA solution in PBS (0.5 mg/ml trypsin, 0.2 mg/ml EDTA, Irvine Scientific #9342) when confluency reaches ˜90%.
(§2) GABAA subunit transfected HEK cells are grown to ˜70% confluency on slide. Cells are transferred to a bath that is continuously perfused with extracellular saline. The extracellular medium contained 145 mM NaCl, 3 mM KCl, 1.5 mM CaCl2, 1 mM MgCl2, 5.5 mM d-glucose, and 10 mM HEPES, pH 7.4 at an osmolarity of 320-330 mosM. Recordings are performed at room temperature using the whole cell patch clamp technique. The patch pipette solution contained 147 mM N-methyl-D-glucamine hydrochloride, 5 mM CsCl, 5 mM K2ATP, 5 mM HEPES, 1 mM MgCl2, 0.1 mM CaCl2, and 1.1 mM EGTA, pH 7.2, at an osmolarity of 315 mosM. Pipette-to-bath resistance is typically 3-5 Mohms. […]

[2] = target: T2, human GABAA receptors containing α2β2γ2 subunits (Homo sapiens, UniProt P18507+P47869+P47870); test: Electrophysiology Assay 2, GABAA subunit transfected HEK cells (α2β2γ2); type: cell-based; settings: expressed human α2β2γ2 receptors; versus diazepam; FIG. 2
T2 construct: expressed in transfected cells; host or cells: HEK cells
T2 sequence (P47869 29-451): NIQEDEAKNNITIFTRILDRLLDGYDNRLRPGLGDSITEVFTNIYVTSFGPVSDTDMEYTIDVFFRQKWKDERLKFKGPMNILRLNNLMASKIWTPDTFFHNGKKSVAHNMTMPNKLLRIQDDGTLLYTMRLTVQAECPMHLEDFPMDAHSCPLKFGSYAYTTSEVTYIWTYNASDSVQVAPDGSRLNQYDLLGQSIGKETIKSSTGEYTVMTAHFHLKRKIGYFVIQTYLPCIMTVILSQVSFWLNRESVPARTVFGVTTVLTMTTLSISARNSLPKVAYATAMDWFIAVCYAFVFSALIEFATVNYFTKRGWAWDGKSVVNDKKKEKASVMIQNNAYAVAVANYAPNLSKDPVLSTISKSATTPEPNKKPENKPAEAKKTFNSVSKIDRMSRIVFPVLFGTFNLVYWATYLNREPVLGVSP
T2 sequence (P47870 25-512 limits assumed): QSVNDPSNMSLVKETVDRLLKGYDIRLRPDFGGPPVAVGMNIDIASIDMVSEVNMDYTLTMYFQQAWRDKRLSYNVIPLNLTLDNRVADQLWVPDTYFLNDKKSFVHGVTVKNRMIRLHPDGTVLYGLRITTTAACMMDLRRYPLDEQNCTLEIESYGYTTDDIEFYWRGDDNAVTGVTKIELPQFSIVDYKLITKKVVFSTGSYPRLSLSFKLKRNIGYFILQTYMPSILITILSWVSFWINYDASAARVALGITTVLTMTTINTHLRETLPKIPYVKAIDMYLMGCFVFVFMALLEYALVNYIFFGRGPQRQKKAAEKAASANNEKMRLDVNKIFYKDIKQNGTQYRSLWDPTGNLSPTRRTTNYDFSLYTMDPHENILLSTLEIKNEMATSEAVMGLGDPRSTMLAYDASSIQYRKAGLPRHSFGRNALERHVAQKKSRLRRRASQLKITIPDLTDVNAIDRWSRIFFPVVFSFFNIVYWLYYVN
T2 sequence (P18507 40-475): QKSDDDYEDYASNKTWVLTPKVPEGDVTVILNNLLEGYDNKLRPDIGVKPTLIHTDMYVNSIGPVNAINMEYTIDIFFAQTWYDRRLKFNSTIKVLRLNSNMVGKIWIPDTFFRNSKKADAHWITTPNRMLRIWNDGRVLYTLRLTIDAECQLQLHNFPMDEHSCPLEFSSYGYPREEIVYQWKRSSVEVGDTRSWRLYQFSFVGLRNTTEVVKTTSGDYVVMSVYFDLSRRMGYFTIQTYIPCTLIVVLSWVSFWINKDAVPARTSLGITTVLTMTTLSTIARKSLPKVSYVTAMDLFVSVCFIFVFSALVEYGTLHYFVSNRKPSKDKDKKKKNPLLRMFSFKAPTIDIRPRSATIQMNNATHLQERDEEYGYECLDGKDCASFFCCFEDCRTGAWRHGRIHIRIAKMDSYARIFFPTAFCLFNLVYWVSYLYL
Protocol: as §1, §2

[3] = tested on: 24 hour thirsted rats; test: Vogel Model of Anxiety (Vogel Conflict); type: in vivo, rat; settings: compared with Diazepam (DZP), FIG. 4
Protocol: Adult male rats are randomly divided into groups of 6 rats/group. Animals were deprived of water overnight (24 hr). Food was freely available at time of thirsting. Thirty minutes after injection (i.p.) of test drug, positive control drug (diazepam, 1 mg/kg), or vehicle control rats are placed in a square Plexiglas box containing a stainless steel bottom connected to one side of a drinkometer circuit. At the other side of the drinkometer circuit a water bottle, placed so the drink tube extends into the Plexiglas box, is connected. When a subject drinks from the bottle the circuit is closed and an electric shock is delivered at the tube after seven licks are recorded. The number of licks in a 3 min session is recorded. Anti-anxiety agents will increase the number of shocks the animal is willing to endure to acquire water.

[4] = tested on: GABA-gated chloride channels; test: Electrophysiological Assay 1, whole cell patch-clamp of hippocampal neurons; type: cell-based; settings: C3 5 μM; GABA 10 μM; embryonic rat hippocampal neurons; FIG. 1
Protocol: Pregnant Sprague-Dawley rats, incubating embryos of 17-19 days gestation, were killed by cervical dislocation. The embryos were removed under aseptic conditions and the brains quickly excised and placed in Hank's balanced salt solution (HBSS, Gibco) at ambient room temperature (18-22° C.). The hippocampi were dissected out and chopped into fragments (˜2 mm^3) and transferred into an enzyme solution containing (in mM): NaCl 116, KCl 5.4, NaHCO3 26, NaH2PO4 1, CaCl2 1.5, MgSO4 1, EDTA 0.5, glucose 25, cysteine 1, and papain 20 U/ml (Sigma) and incubated at 37° C., 5% CO2, 100% relative humidity for 1 hr. Tissue fragments were washed in HBSS containing 1 mg/ml of bovine serum albumin (BSA) and 1 mg/ml of ovomucoid (both Sigma). Tissue was transferred into a further 3-4 ml of this solution and gently triturated into a single cell suspension using a fire-polished Pasteur pipette. The single cell suspension was layered on to 5 ml HBSS containing 10 mg/ml of BSA and 10 mg/ml of ovomucoid and centrifuged at 100× g for 10 min. […]
Agonist evoked membrane currents were recorded from hippocampal neurons using the whole cell configuration of the patch-clamp technique. […] Agonist-evoked whole cell currents were measured at their peak. Responses in the presence of drugs expressed as the arithmetic mean ±SEM of responses in the absence (control) or drugs.

T1 sequence (P14867 28-456): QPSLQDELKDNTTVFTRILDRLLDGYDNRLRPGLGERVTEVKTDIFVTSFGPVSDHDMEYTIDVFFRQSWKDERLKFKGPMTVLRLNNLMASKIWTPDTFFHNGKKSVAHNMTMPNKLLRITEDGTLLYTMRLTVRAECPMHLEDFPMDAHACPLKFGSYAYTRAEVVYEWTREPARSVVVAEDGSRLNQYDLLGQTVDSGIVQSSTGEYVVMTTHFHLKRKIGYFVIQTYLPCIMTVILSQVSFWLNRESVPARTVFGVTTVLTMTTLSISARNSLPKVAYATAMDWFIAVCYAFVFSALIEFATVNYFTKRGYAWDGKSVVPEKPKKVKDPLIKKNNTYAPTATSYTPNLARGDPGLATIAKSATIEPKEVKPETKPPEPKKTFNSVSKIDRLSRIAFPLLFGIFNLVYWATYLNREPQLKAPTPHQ
T1 sequence (P47870 25-512 limits assumed): as the sequence (P47870 25-512 limits assumed) above
T1 sequence (P18507 40-475): as the sequence (P18507 40-475) above

CCn1cc(C(=O)O)c(=O)c2cc(NC3CCCc4ccccc43)c(Cl)cc21 (stereo not shown) [compound 3, 7-chloro-1-ethyl-6-(1,2,3,4-tetrahydronaphthyl-1-amino)-4-oxo-1,4-dihydroquinoline-3-carboxylic acid]
efficacy on GABA induced currents (IGABA) [1]: dose-dependent positive efficacy | efficacy on GABA induced currents (IGABA) [2]: dose-dependent positive efficacy | anti-anxiety effects, punished responding (number of licks during a 3 minute period) [3]: comparable to that of DZP | potentiating effect on GABA induced chloride currents [4]: positive efficacy modulator of GABA-gated chloride channels

Reference: US7355047B2, “Substituted quinolone carboxylic acids, their derivatives, site of action, and uses thereof” (The Regents of the University of California, priority 2002, dated 2008)
